The test system of the assay is L1210 leukemia ip in BDF1 mice, survival T/C. Nature of the assay: NCI In Vivo Anticancer Drug Screen. Data for tumor model L1210 Leukemia (intraperitoneal) in B6D2F1 (BDF1) mice. Conditions: endpoint: mean survival time, higher = longer survival. The method, boiled down: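 In this screen, tumor-bearing mice given compound are compared to those given vehicle, and their survival values are reported as a treated-to-control quotient.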

The mark [1] stands for this setting: dose: 100.0 mg/kg/injection, schedule: Q04DX003 (ip), vehicle: saline with Tween-80.
Where [2] appears, read: dose: 200.0 mg/kg/injection, schedule: Q04DX003 (ip), vehicle: saline with Tween-80.
[3] abbreviates: dose: 400.0 mg/kg/injection, schedule: Q04DX003 (ip), vehicle: saline with Tween-80.
Setting [4] is: dose: 50.0 mg/kg/injection, schedule: Q01DX001 (ip), vehicle: saline.
Where [5] appears, read: dose: 100.0 mg/kg/injection, schedule: Q01DX001 (ip), vehicle: saline.
Where [6] appears, read: dose: 100.0 mg/kg/injection, schedule: Q04DX003 (ip), vehicle: saline.
Where [7] appears, read: dose: 25.0 mg/kg/injection, schedule: Q01DX009 (ip), vehicle: Klucel (hydroxypropylcellulose) (HPC).
Setting [8] is: dose: 200.0 mg/kg/injection, schedule: Q01DX001 (ip), vehicle: saline.
Where [9] appears, read: dose: 400.0 mg/kg/injection, schedule: Q01DX001 (ip), vehicle: saline.

Each structure is given as a SMILES string. Values joined by “and” are separate entries in the source; they are usually repeats but may differ in a detail not shown here. Equal entries are not always repeated. Toxic doses and inconclusive results are not listed. Peptide text beside a SMILES is read from it. * marks the point of attachment. Bn = c1ccc(C*)cc1; For = O=C*

Results on 20 compounds are retold here after PubChem BioAssay AID248 (DTP/NCI, 2004).

With `c1ccc(NC2=NCCO2)cc1`, the T/C is, setting by setting: (dose: 25.0 mg/kg/injection, schedule: Q04DX002 (ip), vehicle: saline with Tween-80) 107 % of control; (dose: 50.0 mg/kg/injection, schedule: Q04DX002 (ip), vehicle: saline with Tween-80) 90 % of control; (dose: 100.0 mg/kg/injection, schedule: Q04DX002 (ip), vehicle: saline with Tween-80) 96 % of control.
Turning to `COc1ccc(CN2CCCN(Cc3ccc(OC)cc3)C2c2c(O)ccc3ccccc23)cc1`, the T/C (dose: 5.0 mg/kg/injection, schedule: Q01DX001 (ip), vehicle: acetone) was 100 % of control; the T/C (dose: 10.0 mg/kg/injection, schedule: Q01DX001 (ip), vehicle: acetone) is 95 % of control; the T/C (dose: 20.0 mg/kg/injection, schedule: Q01DX001 (ip), vehicle: acetone) is 92 % of control; the T/C (dose: 40.0 mg/kg/injection, schedule: Q01DX001 (ip), vehicle: acetone) was 88 % of control.
Regarding `CC(C)c1cccc2ccccc12`, the T/C is 95 % of control (dose: 100.0 mg/kg/injection, schedule: Q04DX003 (ip), vehicle: acetone) and 88 % of control (dose: 200.0 mg/kg/injection, schedule: Q04DX003 (ip), vehicle: acetone).
As to `C=C1CC(C)(c2ccccn2)OC1=O` (stereo not drawn), the T/C was 94 % of control (dose: 6.25 mg/kg/injection, schedule: Q04DX002 (ip), vehicle: Klucel (hydroxypropylcellulose) (HPC)); 102 % of control (dose: 12.5 mg/kg/injection, schedule: Q04DX002 (ip), vehicle: Klucel (hydroxypropylcellulose) (HPC)); 120 % of control (dose: 25.0 mg/kg/injection, schedule: Q01DX001 (ip), vehicle: Klucel (hydroxypropylcellulose) (HPC)); 110 % of control (dose: 25.0 mg/kg/injection, schedule: Q04DX002 (ip), vehicle: Klucel (hydroxypropylcellulose) (HPC)); 98 % of control (dose: 100.0 mg/kg/injection, schedule: Q01DX001 (ip), vehicle: Klucel (hydroxypropylcellulose) (HPC)).
In the case of `CC(C)CC(NC(=O)C(Cc1ccc(OCc2ccccc2)cc1)NC=O)C(=O)O` (stereo not drawn) (For-Tyr(Bn)-Leu-OH; configuration not given here), the T/C is, setting by setting: (dose: 100.0 mg/kg/injection, schedule: Q01DX009 (ip), vehicle: saline with Tween-80) 98 % of control; under setting [1], 97 % of control; (dose: 200.0 mg/kg/injection, schedule: Q01DX009 (ip), vehicle: saline with Tween-80) 98 % of control; under setting [2], 97 % of control; under setting [3], 92 % of control.
For the compound `CC1=CC(=N\S(=O)(=O)c2ccccc2)/c2ccccc2/C1=N/S(=O)(=O)c1ccccc1`, the T/C is, setting by setting: (dose: 25.0 mg/kg/injection, schedule: Q01DX001 (ip), vehicle: saline sonified) 92 % of control; (dose: 50.0 mg/kg/injection, schedule: Q01DX001 (ip), vehicle: saline sonified) 95 % of control; (dose: 100.0 mg/kg/injection, schedule: Q01DX001 (ip), vehicle: saline sonified) 95 % of control.
`COc1ccc(C(c2ccccc2)N(N=O)C(=O)c2ccccc2)cc1` (stereo not drawn): the T/C was 94 % of control (dose: 38.0 mg/kg/injection, schedule: Q04DX002 (ip), vehicle: Klucel (hydroxypropylcellulose) (HPC)); 94 % of control (dose: 75.0 mg/kg/injection, schedule: Q04DX002 (ip), vehicle: Klucel (hydroxypropylcellulose) (HPC)); 94 % of control (dose: 150.0 mg/kg/injection, schedule: Q04DX002 (ip), vehicle: Klucel (hydroxypropylcellulose) (HPC)).
For `COc1cc(C(C)=O)cc(OC)c1Oc1cc(OC)c(OC)c(OC)c1C(C)=O`, the T/C was 95 % of control under setting [1], 97 % of control under setting [2] and 101 % of control under setting [3].
`O=C(NOS(=O)(=O)O)c1ccccc1`: the T/C by setting is: (dose: 25.0 mg/kg/injection, schedule: Q01DX001 (ip), vehicle: saline) 94 % of control; (dose: 25.0 mg/kg/injection, schedule: Q01DX009 (ip), vehicle: saline) 110 % of control; (dose: 25.0 mg/kg/injection, schedule: Q04DX003 (ip), vehicle: saline) 98 % of control; under setting [4], 99 % of control; (dose: 50.0 mg/kg/injection, schedule: Q01DX009 (ip), vehicle: saline) 97 % of control; (dose: 50.0 mg/kg/injection, schedule: Q04DX003 (ip), vehicle: saline) 100 % of control. In addition, the T/C was 100 % of control and 104 % of control under setting [5]; 100 % of control under setting [6].
Turning to `O=C(O)c1ccc(=O)oc1`, the T/C under setting [7] was 100 % of control; the T/C (dose: 50.0 mg/kg/injection, schedule: Q01DX009 (ip), vehicle: Klucel (hydroxypropylcellulose) (HPC)) is 87 % of control; the T/C (dose: 100.0 mg/kg/injection, schedule: Q01DX009 (ip), vehicle: Klucel (hydroxypropylcellulose) (HPC)) was 90 % of control.
As for `O=[N+]([O-])c1ccc(S)c(Cl)c1`, the T/C is, setting by setting: (dose: 12.5 mg/kg/injection, schedule: Q01DX009 (ip), vehicle: Klucel (hydroxypropylcellulose) (HPC)) 104 % of control; under setting [7], 104 % of control.
As for `COc1cc(C=Nc2cc(Br)c(O)c(Br)c2)ccc1N(CCCl)CCCl`, the T/C was 101 % of control (dose: 6.4 mg/kg/injection, schedule: Q01DX009 (ip), vehicle: carboxymethylcellulose (CMC)); 104 % of control (dose: 9.8 mg/kg/injection, schedule: Q01DX001 (ip), vehicle: carboxymethylcellulose (CMC)); 103 % of control and 111 % of control (dose: 14.6 mg/kg/injection, schedule: Q01DX009 (ip), vehicle: carboxymethylcellulose (CMC)); 177 % of control (dose: 22.0 mg/kg/injection, schedule: Q01DX001 (ip), vehicle: carboxymethylcellulose (CMC)); 94 % of control (dose: 22.0 mg/kg/injection, schedule: Q01DX009 (ip), vehicle: carboxymethylcellulose (CMC)); 153 % of control (dose: 25.0 mg/kg/injection, schedule: Q01DX001 (ip), vehicle: carboxymethylcellulose (CMC)). Besides, the T/C (dose: 50.0 mg/kg/injection, schedule: Q01DX001 (ip), vehicle: carboxymethylcellulose (CMC)) was 161 % of control.
Turning to `CC(C1CCCCC1)C(C#N)C(=O)NC(N)=O` (stereo not drawn), the T/C was 97 % of control under setting [4], 92 % of control under setting [5], 95 % of control under setting [8] and 90 % of control under setting [9].
In the case of `O=C1/C(=C/c2ccccn2)COc2ccccc21`, the T/C is 93 % of control (dose: 100.0 mg/kg/injection, schedule: Q04DX003 (ip), vehicle: carboxymethylcellulose (CMC)); 95 % of control (dose: 200.0 mg/kg/injection, schedule: Q04DX003 (ip), vehicle: carboxymethylcellulose (CMC)); 103 % of control (dose: 400.0 mg/kg/injection, schedule: Q04DX003 (ip), vehicle: carboxymethylcellulose (CMC)).
Consider `COP(=O)(CN1C(=O)c2ccccc2C1=O)c1ccccc1` (stereo not drawn), for which the T/C is, setting by setting: (dose: 100.0 mg/kg/injection, schedule: Q04DX002 (ip), vehicle: Klucel (hydroxypropylcellulose) (HPC)) 94 % of control; (dose: 200.0 mg/kg/injection, schedule: Q04DX002 (ip), vehicle: Klucel (hydroxypropylcellulose) (HPC)) 94 % of control; (dose: 400.0 mg/kg/injection, schedule: Q04DX002 (ip), vehicle: Klucel (hydroxypropylcellulose) (HPC)) 101 % of control.
Consider `c1ccc(SCc2ncc3cnccn23)cc1`, for which the T/C runs as follows: under setting [1], 97 % of control; under setting [2], 94 % of control; under setting [3], 103 % of control.
On to `CCOC(=O)N1NC(=O)CC1(C)C`, for which the T/C runs as follows: under setting [6], 105 % of control; (dose: 200.0 mg/kg/injection, schedule: Q04DX003 (ip), vehicle: saline) 105 % of control; (dose: 400.0 mg/kg/injection, schedule: Q04DX003 (ip), vehicle: saline) 102 % of control.
In the case of `CC(=O)/C=C(\C)NCC(C)N/C(C)=C/C(C)=O` (stereo not drawn), the T/C is 105 % of control under setting [5], 96 % of control under setting [8] and 99 % of control under setting [9].
`Cc1c(C)c(C)c(C(=O)C[n+]2ccccc2)c(C)c1C`: the T/C (dose: 12.5 mg/kg/injection, schedule: Q04DX002 (ip), vehicle: saline) was 104 % of control; the T/C (dose: 25.0 mg/kg/injection, schedule: Q04DX002 (ip), vehicle: saline) was 96 % of control; the T/C (dose: 50.0 mg/kg/injection, schedule: Q04DX002 (ip), vehicle: saline) was 107 % of control.
As for `CCOC(=O)c1cc([N+](=O)[O-])ccc1N`, the T/C is 100 % of control under setting [5], 94 % of control under setting [8] and 94 % of control under setting [9].
